3 h FOB score data for 25 substances are collected here from the OligoGym collection.

The data set deals with PRNP. The data set is described as follows: mouse, dose not given. Conditions: ASO.

HELM strings list units from the 5' end as sugar, base in round brackets, then linkage (d deoxyribose, r ribose, m 2'-O-methyl, p phosphodiester). Strings are as the collection lists them; they lack the last nucleoside at the 3' end of the tested compound. [moe] = 2'-O-(2-methoxyethyl) (MOE); [sp] = phosphorothioate linkage; [m5C] = 5-methylcytosine

As to “RNA1{[moe](A)[sp].[moe](A)p.[moe](G)p.[moe](G)p.[moe](T)[sp].d(T)[sp].d([m5C])[sp].d(G)[sp].d([m5C])[sp].d([m5C])[sp].d(A)[sp].d(T)[sp].d(A)[sp].d(A)[sp].d(T)[sp].[moe](G)p.[moe](A)p.[moe]([m5C])[sp].[moe](T)}$$$$ (last 3' nucleoside missing)”, the 3 h FOB score was determined as 5.25 score 0-7.

“RNA1{[moe](G)[sp].[moe](T)p.[moe](G)p.[moe](T)p.d([m5C])[sp].d(A)[sp].d(T)[sp].d(A)[sp].d(A)[sp].d(T)[sp].d(T)[sp].d(T)[sp].d(T)[sp].d([m5C])[sp].[moe](T)p.[moe](T)p.[moe](A)p.[moe](G)[sp].[moe]([m5C])}$$$$ (last 3' nucleoside missing)” gave a 3 h FOB score of 0 score 0-7.

In turn, “RNA1{[moe](A)[sp].[moe](A)p.[moe](T)p.[moe](G)p.[moe](A)[sp].d([m5C])[sp].d(T)[sp].d([m5C])[sp].d(A)[sp].d(T)[sp].d([m5C])[sp].d(A)[sp].d(T)[sp].d(T)[sp].d(T)[sp].[moe](T)p.[moe](G)p.[moe]([m5C])[sp].[moe]([m5C])}$$$$ (last 3' nucleoside missing)” returned a 3 h FOB score of 0 score 0-7.

“RNA1{[moe](A)[sp].[moe](A)p.[moe](T)p.[moe]([m5C])p.[moe](A)[sp].d(T)[sp].d(A)[sp].d(T)[sp].d(T)[sp].d(T)[sp].d([m5C])[sp].d(T)[sp].d(G)[sp].d(T)[sp].d([m5C])[sp].[moe](A)p.[moe](T)p.[moe]([m5C])[sp].[moe](T)}$$$$ (last 3' nucleoside missing)” had a 3 h FOB score of 5 score 0-7.

Substance “RNA1{[moe](T)[sp].[moe]([m5C])p.[moe](T)p.[moe](T)p.[moe](A)[sp].d(G)[sp].d(A)[sp].d(T)[sp].d(T)[sp].d(T)[sp].d(T)[sp].d(T)[sp].d(G)[sp].d(G)[sp].d(A)[sp].[moe]([m5C])p.[moe](G)p.[moe](G)[sp].[moe](G)}$$$$ (last 3' nucleoside missing)” showed a 3 h FOB score of 4.5 score 0-7.

Substance “RNA1{[moe](G)[sp].[moe]([m5C])p.[moe]([m5C])p.[moe](A)p.[moe](A)[sp].d(G)[sp].d(G)[sp].d(G)[sp].d(T)[sp].d(A)[sp].d(T)[sp].d(T)[sp].d(G)[sp].d(A)[sp].d(T)[sp].[moe](T)p.[moe](A)p.[moe](G)[sp].[moe]([m5C])}$$$$ (last 3' nucleoside missing)” gave a 3 h FOB score of 3.5 score 0-7.

With “RNA1{[moe]([m5C])[sp].[moe]([m5C])p.[moe](T)p.[moe](T)p.[moe](T)[sp].d([m5C])[sp].d(A)[sp].d(T)[sp].d(A)[sp].d(T)[sp].d(A)[sp].d(T)[sp].d(G)[sp].d(T)[sp].d(T)[sp].[moe](A)p.[moe]([m5C])p.[moe](A)[sp].[moe](G)}$$$$ (last 3' nucleoside missing)”, the 3 h FOB score turned out to be 5 score 0-7.

“RNA1{[moe](A)[sp].[moe]([m5C])p.[moe](T)p.[moe]([m5C])p.[moe](T)p.[moe](A)p.d(T)[sp].d(G)[sp].d(T)[sp].d(T)[sp].d(T)[sp].d(T)[sp].d([m5C])[sp].d([m5C])[sp].d(A)[sp].d(G)[sp].[moe](T)p.[moe](G)[sp].[moe]([m5C])}$$$$ (last 3' nucleoside missing)” displayed a 3 h FOB score of 1.25 score 0-7.

“RNA1{[moe](G)[sp].[moe]([m5C])[sp].[moe]([m5C])[sp].[moe](A)[sp].[moe]([m5C])[sp].d(A)[sp].d(T)[sp].d(A)[sp].d(T)[sp].d(A)[sp].d(G)[sp].d(G)[sp].d(G)[sp].d(T)[sp].d([m5C])[sp].[moe]([m5C])[sp].[moe](T)[sp].[moe](T)[sp].[moe](T)}$$$$ (last 3' nucleoside missing)” yielded a 3 h FOB score of 4.25 score 0-7.

For the substance “RNA1{[moe]([m5C])[sp].[moe](T)p.[moe](T)p.[moe](T)p.[moe](T)[sp].d([m5C])[sp].d(T)[sp].d(T)[sp].d(T)[sp].d(G)[sp].d([m5C])[sp].d(A)[sp].d([m5C])[sp].d(A)[sp].d([m5C])[sp].[moe](T)p.[moe](G)p.[moe](A)[sp].[moe]([m5C])}$$$$ (last 3' nucleoside missing)”, the 3 h FOB score came out at 4 score 0-7.

“RNA1{[moe](G)[sp].[moe]([m5C])p.[moe](T)p.[moe](T)p.[moe](A)p.d(T)[sp].d(T)[sp].d(A)[sp].d(T)[sp].d(T)[sp].d([m5C])[sp].d(A)[sp].d(T)[sp].d(G)[sp].[moe](T)[sp].[moe](T)p.[moe]([m5C])p.[moe](T)}$$$$ (last 3' nucleoside missing)” displayed a 3 h FOB score of 1 score 0-7.

“RNA1{[moe](A)[sp].[moe]([m5C])p.[moe](G)p.[moe](T)p.[moe]([m5C])[sp].d([m5C])[sp].d(A)[sp].d(T)[sp].d(T)[sp].d(T)[sp].d(T)[sp].d([m5C])[sp].d(T)[sp].d(G)[sp].d(T)[sp].[moe](G)p.[moe]([m5C])p.[moe](T)[sp].[moe](T)}$$$$ (last 3' nucleoside missing)” came in with a 3 h FOB score of 1.75 score 0-7.

“RNA1{[moe](G)[sp].[moe](G)p.[moe]([m5C])p.[moe](A)p.[moe](A)[sp].d(A)[sp].d(G)[sp].d(G)[sp].d(T)[sp].d(A)[sp].d(T)[sp].d(T)[sp].d(T)[sp].d([m5C])[sp].d(A)[sp].[moe](G)p.[moe](A)p.[moe]([m5C])[sp].[moe](T)}$$$$ (last 3' nucleoside missing)” registered a 3 h FOB score of 6.5 score 0-7.

“RNA1{[moe](G)[sp].[moe]([m5C])p.[moe](A)p.[moe](A)p.[moe]([m5C])[sp].d(G)[sp].d(G)[sp].d([m5C])[sp].d(T)[sp].d([m5C])[sp].d(A)[sp].d(T)[sp].d(G)[sp].d(A)[sp].d(T)[sp].[moe](G)p.[moe](A)p.[moe](A)[sp].[moe]([m5C])}$$$$ (last 3' nucleoside missing)” returned a 3 h FOB score of 3.5 score 0-7.

In turn, “RNA1{[moe](T)[sp].[moe](T)p.[moe](T)p.[moe](G)p.[moe](A)[sp].d(T)[sp].d(T)[sp].d(T)[sp].d([m5C])[sp].d(A)[sp].d(A)[sp].d(G)[sp].d(T)[sp].d([m5C])[sp].d([m5C])[sp].[moe]([m5C])p.[moe](A)p.[moe](G)[sp].[moe](A)}$$$$ (last 3' nucleoside missing)” gave a 3 h FOB score of 2.25 score 0-7.

Take “RNA1{[moe](T)[sp].[moe](A)p.[moe](G)p.[moe](G)p.[moe]([m5C])[sp].d(T)[sp].d([m5C])[sp].d(T)[sp].d(T)[sp].d(T)[sp].d(T)[sp].d([m5C])[sp].d([m5C])[sp].d(A)[sp].d(G)[sp].[moe](G)p.[moe](T)p.[moe](G)[sp].[moe](T)}$$$$ (last 3' nucleoside missing)”: the 3 h FOB score worked out at 1 score 0-7.

Regarding “RNA1{[moe](G)[sp].[moe]([m5C])p.[moe](T)p.[moe](T)p.d(A)[sp].d([m5C])[sp].d(T)[sp].d([m5C])[sp].d(G)[sp].d(G)[sp].d([m5C])[sp].d(T)[sp].d(T)[sp].d(G)[sp].[moe](T)p.[moe](T)p.[moe]([m5C])p.[moe]([m5C])[sp].[moe](A)}$$$$ (last 3' nucleoside missing)”, the 3 h FOB score came to 3.25 score 0-7.

For the substance “RNA1{[moe](G)[sp].[moe]([m5C])p.[moe](A)p.[moe]([m5C])p.[moe](A)[sp].d([m5C])[sp].d(T)[sp].d(G)[sp].d(A)[sp].d([m5C])[sp].d([m5C])[sp].d(A)[sp].d(T)[sp].d(T)[sp].d(T)[sp].[moe](T)p.[moe](T)p.[moe](T)[sp].[moe](A)}$$$$ (last 3' nucleoside missing)”, the 3 h FOB score came to 0 score 0-7.

The substance “RNA1{[moe](A)[sp].[moe](A)p.[moe](T)p.[moe](T)p.[moe](T)[sp].d([m5C])[sp].d(T)[sp].d(T)[sp].d(T)[sp].d(T)[sp].d(T)[sp].d([m5C])[sp].d([m5C])[sp].d(A)[sp].d([m5C])[sp].[moe](T)p.[moe](T)p.[moe]([m5C])[sp].[moe](A)}$$$$ (last 3' nucleoside missing)” displayed a 3 h FOB score of 0 score 0-7.

“RNA1{[moe](A)[sp].[moe](A)p.[moe]([m5C])p.[moe](G)p.[moe](T)[sp].d([m5C])[sp].d([m5C])[sp].d(A)[sp].d(T)[sp].d(T)[sp].d(T)[sp].d(T)[sp].d([m5C])[sp].d(T)[sp].d(G)[sp].[moe](T)p.[moe](G)p.[moe]([m5C])[sp].[moe](T)}$$$$ (last 3' nucleoside missing)” displayed a 3 h FOB score of 0 score 0-7.

On to “RNA1{[moe](T)[sp].[moe](T)p.[moe](G)p.[moe]([m5C])p.[moe](A)[sp].d(G)[sp].d(G)[sp].d(T)[sp].d(A)[sp].d(A)[sp].d(G)[sp].d(T)[sp].d(T)[sp].d([m5C])[sp].d(T)[sp].[moe]([m5C])p.[moe](A)p.[moe](G)[sp].[moe](G)}$$$$ (last 3' nucleoside missing)”, for which the 3 h FOB score worked out at 5.25 score 0-7.

With “RNA1{[moe](T)[sp].[moe](T)p.[moe](A)p.[moe]([m5C])p.[moe](T)[sp].d([m5C])[sp].d(G)[sp].d(G)[sp].d([m5C])[sp].d(T)[sp].d(T)[sp].d(G)[sp].d(T)[sp].d(T)[sp].d([m5C])[sp].[moe]([m5C])p.[moe](A)p.[moe]([m5C])[sp].[moe](T)}$$$$ (last 3' nucleoside missing)”, the 3 h FOB score amounted to 2.5 score 0-7.

“RNA1{[moe](G)[sp].[moe](T)p.[moe]([m5C])p.[moe](A)p.[moe](G)[sp].d(T)[sp].d(T)[sp].d(T)[sp].d(T)[sp].d(T)[sp].d([m5C])[sp].d([m5C])[sp].d([m5C])[sp].d([m5C])[sp].d(A)[sp].[moe]([m5C])p.[moe](A)p.[moe](T)[sp].[moe](A)}$$$$ (last 3' nucleoside missing)”: the 3 h FOB score came out at 1 score 0-7.

On to “RNA1{[moe](A)[sp].[moe](T)p.[moe](G)p.[moe](G)p.[moe]([m5C])[sp].d(A)[sp].d([m5C])[sp].d(T)[sp].d(T)[sp].d(T)[sp].d([m5C])[sp].d(T)[sp].d(T)[sp].d(T)[sp].d(T)[sp].[moe](T)p.[moe](A)p.[moe](T)[sp].[moe](T)}$$$$ (last 3' nucleoside missing)”, for which the 3 h FOB score worked out at 1 score 0-7.

For “RNA1{[moe]([m5C])[sp].[moe]([m5C])p.[moe](A)p.[moe](G)p.[moe](A)[sp].d(A)[sp].d(G)[sp].d(T)[sp].d(T)[sp].d(T)[sp].d(A)[sp].d(A)[sp].d([m5C])[sp].d(A)[sp].d(T)[sp].[moe](A)p.[moe](T)p.[moe](T)[sp].[moe](T)}$$$$ (last 3' nucleoside missing)”, the 3 h FOB score stood at 0 score 0-7.
